Results published in US11382878B2, “Use of metformin and sodium butyrate for treating conditions induced by chronic inflammation” (Johnpro Biotech Inc., priority 2017, dated 2022).

How the values were obtained:
[1] = system: radiation induced inflammation of the rectum; assay: Radiation induced rectum inflammation in mice (gross rectum observation, H&E staining)
radiation proctitis = assay: Clinical case: radiation proctitis patient treated by enema; assay type: in vivo, human; settings: one patient, grade 3 radiation proctitis, sulfasalazine and steroids enema treatment for 6 months

Row | SMILES | stool in the rectum (rectum mucosa function of absorbing water) ([1]; 30 Gy radiation on Day 1, rectal enema once daily Day 8 to Day 14, observed Day 14 (FIG. 4A, 4B)) | crypt tissue / damage to the intestine mucosa (H&E stain) ([1]; 30 Gy radiation on Day 1, rectal enema once daily Day 8 to Day 14, rectum samples Day 14 (FIG. 5A)) | response of symptoms to prior treatment (radiation proctitis)
1 | C[C@]12CCC(=O)C=C1CC[C@@H]1[C@@H]2C(=O)C[C@@]2(C)[C@H]1CC[C@]2(O)C(=O)CO [cortisone] | a significant amount of loose stool was seen in the rectum | the crypt tissue was not observed | –
2 | O=C(O)c1cc(/N=N/c2ccc(S(=O)(=O)Nc3ccccn3)cc2)ccc1O [sulfasalazine] | – | – | refractory
